Reference: PubChem BioAssay (NCI)
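Dose response: 5 concentrations. Exposure: 48 h. Format: 96-well plates. Endpoint: linear interpolation; highest concentration if not reached. GI50 marks 50% less growth. TGI denotes the concentration required for complete inhibition of growth.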

Experiments:
Test in all cases: growth of human tumour cells (NCI), 48 h
A498 renal = tested on: A498 renal
HCC-2998 colon = tested on: HCC-2998 colon
HCT-15 colon = tested on: HCT-15 colon
HOP-92 NSCLC = tested on: HOP-92 NSCLC
HT29 colon = tested on: HT29 colon
NCI-H226 lung = tested on: NCI-H226 lung
NCI-H23 lung = tested on: NCI-H23 lung
SF-295 CNS = tested on: SF-295 CNS
SR leukemia = tested on: SR leukemia
SW-620 colon = tested on: SW-620 colon

SMILES: Cc1cccc(N=C2NC(=O)C(CC(=O)Nc3ccccc3Cl)S2)c1 (stereo not given)
- TGI (A498 renal): > 100 µM
- TGI (HCC-2998 colon): > 100 µM
- TGI (HCT-15 colon): > 100 µM
- TGI (HOP-92 NSCLC): > 100 µM
- TGI (HT29 colon): > 100 µM
- TGI (NCI-H226 lung): > 100 µM
- TGI (NCI-H23 lung): > 100 µM
- TGI (SF-295 CNS): > 100 µM
- TGI (SR leukemia): > 100 µM
- TGI (SW-620 colon): > 100 µM

SMILES: CCc1nc(N)nc(N)c1C#CC(C)c1cc(-c2ccnc(C)c2)c2oc(C)nc2c1 (stereo not given)
- GI50 (A498 renal): 0.117 µM
- TGI (A498 renal): 4.89 µM
- GI50 (HCC-2998 colon): 0.0206 µM
- TGI (HCC-2998 colon): 5.95 µM
- GI50 (HCT-15 colon): < 0.01 µM
- TGI (HCT-15 colon): 11.3 µM
- GI50 (HOP-92 NSCLC): 0.703 µM
- TGI (HOP-92 NSCLC): 11.4 µM
- GI50 (HT29 colon): < 0.01 µM
- TGI (HT29 colon): 7.74 µM
- GI50 (NCI-H226 lung): 0.913 µM
- TGI (NCI-H226 lung): 11.2 µM
- GI50 (NCI-H23 lung): < 0.01 µM
- TGI (NCI-H23 lung): 5.31 µM
- GI50 (SF-295 CNS): < 0.01 µM
- TGI (SF-295 CNS): 6.39 µM
- GI50 (SR leukemia): < 0.0342 µM
- TGI (SR leukemia): > 53.9 µM
- GI50 (SW-620 colon): < 0.01 µM
- TGI (SW-620 colon): 13.2 µM

SMILES: Oc1ccc(O)c2c1C1(Cl)C(Cl)=C(Cl)C2(Cl)C1(Cl)Cl
- GI50 (A498 renal): 1.83 µM
- TGI (A498 renal): 6.23 µM
- GI50 (HCC-2998 colon): 8.7 µM
- TGI (HCC-2998 colon): 21.3 µM
- GI50 (HCT-15 colon): 4.15 µM
- TGI (HCT-15 colon): 26.1 µM
- GI50 (HOP-92 NSCLC): 1.51 µM
- TGI (HOP-92 NSCLC): 7.13 µM
- GI50 (HT29 colon): 6.44 µM
- TGI (HT29 colon): 17.9 µM
- GI50 (NCI-H226 lung): 10.7 µM
- TGI (NCI-H226 lung): 41 µM
- GI50 (NCI-H23 lung): 5.17 µM
- TGI (NCI-H23 lung): 22.1 µM
- GI50 (SF-295 CNS): 1.67 µM
- TGI (SF-295 CNS): 7.2 µM
- GI50 (SR leukemia): 2.65 µM
- TGI (SR leukemia): 24.7 µM
- GI50 (SW-620 colon): 4.89 µM
- TGI (SW-620 colon): 16.7 µM

SMILES: COc1cc(-c2oc3c(OC)c(O)cc(O)c3c(=O)c2OC)ccc1O
- TGI (A498 renal): 17.2 µM
- TGI (HCC-2998 colon): 50.4 µM
- TGI (HCT-15 colon): > 100 µM
- TGI (HOP-92 NSCLC): 15.5 µM
- TGI (HT29 colon): > 100 µM
- TGI (NCI-H226 lung): 97.2 µM
- TGI (NCI-H23 lung): > 100 µM
- TGI (SF-295 CNS): 76.2 µM
- TGI (SR leukemia): > 26.7 µM
- TGI (SW-620 colon): > 100 µM

SMILES: O=C1OC(OC/C(Br)=C(/Br)COC2OC(=O)C(Cl)=C2Cl)C(Cl)=C1Cl (stereo not given)
- TGI (A498 renal): 38 µM
- TGI (HCC-2998 colon): 34.1 µM
- TGI (HCT-15 colon): 27.1 µM
- TGI (HOP-92 NSCLC): 29.2 µM
- TGI (HT29 colon): 28.4 µM
- TGI (NCI-H226 lung): > 70.7 µM
- TGI (NCI-H23 lung): 22.5 µM
- TGI (SF-295 CNS): 34.2 µM
- GI50 (SR leukemia): 1.6 µM
- TGI (SR leukemia): 5.46 µM
- TGI (SW-620 colon): 8.26 µM

SMILES: COC(=O)Nc1nc2ccc(S(=O)(=O)c3ccc(NC(=O)Nc4cc(C(F)(F)F)ccc4F)cc3)cc2[nH]1
- GI50 (A498 renal): > 25 µM
- TGI (A498 renal): > 25 µM
- GI50 (HCC-2998 colon): > 25 µM
- TGI (HCC-2998 colon): > 25 µM
- GI50 (HCT-15 colon): > 25 µM
- TGI (HCT-15 colon): > 25 µM
- GI50 (HOP-92 NSCLC): > 25 µM
- TGI (HOP-92 NSCLC): > 25 µM
- GI50 (HT29 colon): > 25 µM
- TGI (HT29 colon): > 25 µM
- GI50 (NCI-H226 lung): > 25 µM
- TGI (NCI-H226 lung): > 25 µM
- GI50 (NCI-H23 lung): > 25 µM
- TGI (NCI-H23 lung): > 25 µM
- GI50 (SF-295 CNS): > 25 µM
- TGI (SF-295 CNS): > 25 µM
- GI50 (SR leukemia): > 25 µM
- TGI (SR leukemia): > 25 µM
- GI50 (SW-620 colon): > 25 µM
- TGI (SW-620 colon): > 25 µM

SMILES: NNC(=S)N/N=C(/C(=O)Nc1ccc([N+](=O)[O-])cc1)c1nc2ccc([N+](=O)[O-])cc2[nH]c1=O
- TGI (A498 renal): > 100 µM
- TGI (HCC-2998 colon): > 100 µM
- TGI (HCT-15 colon): > 100 µM
- TGI (HOP-92 NSCLC): > 100 µM
- TGI (HT29 colon): > 100 µM
- TGI (NCI-H226 lung): > 100 µM
- TGI (NCI-H23 lung): > 100 µM
- TGI (SF-295 CNS): > 100 µM
- TGI (SR leukemia): > 100 µM
- TGI (SW-620 colon): > 100 µM

SMILES: COc1ccc2c(c1)C=C1CSCC3=Cc4cc(OC)ccc4OC13O2
- GI50 (A498 renal): 0.23 µM
- TGI (A498 renal): 0.766 µM
- GI50 (HCC-2998 colon): 1.07 µM
- TGI (HCC-2998 colon): > 100 µM
- GI50 (HCT-15 colon): 0.359 µM
- TGI (HCT-15 colon): > 100 µM
- GI50 (HOP-92 NSCLC): 4.6 µM
- TGI (HOP-92 NSCLC): > 100 µM
- GI50 (HT29 colon): 0.34 µM
- TGI (HT29 colon): > 100 µM
- TGI (NCI-H226 lung): > 100 µM
- GI50 (NCI-H23 lung): 1.01 µM
- TGI (NCI-H23 lung): > 100 µM
- GI50 (SF-295 CNS): 0.316 µM
- TGI (SF-295 CNS): > 100 µM
- GI50 (SR leukemia): 0.164 µM
- TGI (SR leukemia): > 100 µM
- GI50 (SW-620 colon): 0.373 µM
- TGI (SW-620 colon): > 100 µM

SMILES: Cc1cc(Cl)ccc1NC(=O)C(=O)Cc1occc(=O)c1O
- TGI (A498 renal): > 100 µM
- TGI (HCC-2998 colon): > 100 µM
- TGI (HCT-15 colon): > 100 µM
- TGI (HOP-92 NSCLC): > 100 µM
- TGI (HT29 colon): > 100 µM
- TGI (NCI-H226 lung): > 100 µM
- TGI (NCI-H23 lung): > 100 µM
- TGI (SF-295 CNS): > 100 µM
- TGI (SR leukemia): > 100 µM
- TGI (SW-620 colon): > 100 µM

SMILES: CCC(=O)c1c(C(F)(F)F)n([O-])c2ccccc2[n+]1=O
- GI50 (A498 renal): 2.67 µM
- TGI (A498 renal): 9.03 µM
- GI50 (HCC-2998 colon): 1.68 µM
- TGI (HCC-2998 colon): 6.31 µM
- GI50 (HCT-15 colon): 1.09 µM
- TGI (HCT-15 colon): 4.88 µM
- GI50 (HOP-92 NSCLC): 1.5 µM
- TGI (HOP-92 NSCLC): 6.08 µM
- GI50 (HT29 colon): 1.41 µM
- TGI (HT29 colon): 11 µM
- GI50 (NCI-H226 lung): 2.09 µM
- TGI (NCI-H226 lung): 9.06 µM
- GI50 (NCI-H23 lung): 1.1 µM
- TGI (NCI-H23 lung): 4.37 µM
- GI50 (SF-295 CNS): 1.59 µM
- TGI (SF-295 CNS): 7.29 µM
- GI50 (SR leukemia): 0.193 µM
- TGI (SR leukemia): 10.3 µM
- GI50 (SW-620 colon): 2.65 µM
- TGI (SW-620 colon): 17.4 µM
